Measured values published in PubChem BioAssay AID449745 (Broad Institute, 2010).
Inconclusive results are not listed. Calls of active or inactive are those of the source. How the calls were made is not given here.

target: Zinc finger protein mex-5 (Caenorhabditis elegans) (UniProt Q9XUB2); assay: retest of MEX-5 TCR-2 binding inhibitors, confirmation, biochemical, C. elegans, fluorescence polarization, dose retest (AID 449745); conditions: Mex-5 / TCR-2 RNA binding;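 further: potency is for blocking Mex-5 binding to labeled TCR2 RNA like unlabeled competitor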
Sequence (Q9XUB2 whole entry, looked up): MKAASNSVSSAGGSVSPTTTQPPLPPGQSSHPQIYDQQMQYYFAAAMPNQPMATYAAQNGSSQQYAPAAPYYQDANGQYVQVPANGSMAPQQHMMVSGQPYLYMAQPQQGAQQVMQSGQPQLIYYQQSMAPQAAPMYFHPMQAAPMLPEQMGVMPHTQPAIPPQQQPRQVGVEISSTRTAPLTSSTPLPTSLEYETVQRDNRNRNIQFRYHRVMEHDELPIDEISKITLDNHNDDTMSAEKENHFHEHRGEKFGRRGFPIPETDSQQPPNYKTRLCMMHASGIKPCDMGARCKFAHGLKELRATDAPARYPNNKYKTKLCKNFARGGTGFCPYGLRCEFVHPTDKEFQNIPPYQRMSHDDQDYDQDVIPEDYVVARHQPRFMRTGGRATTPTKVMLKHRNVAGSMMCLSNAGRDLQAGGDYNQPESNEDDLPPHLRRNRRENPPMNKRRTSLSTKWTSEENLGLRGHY

Row | Structure (SMILES) | AC50
1 | N#Cc1c(C#N)c(O)c2ccccc2c1O | 11.3 µM
2 | Cn1ncc2c(NNC(=O)c3ccc(Cl)cc3Cl)ncnc21 | 12.7 µM
3 | CC(=Nc1ccc(C)cc1C)c1sc2ccccc2c1O | 37.2 µM
4 | CNC(=O)c1c(NC(=O)c2ccc(S(=O)(=O)N(C)c3ccccc3)cc2)sc2c1CCN(C(C)C)C2 | 25.2 µM
5 | NC(=S)N/N=C/c1cccc(O)c1O | 21.2 µM
6 | O=C(Nc1ccccc1F)C(=Cc1sc(N2CCOCC2)nc1-c1ccccc1)C(=O)Nc1ccccc1F | 29.4 µM
7 | Cc1cc2c(n1-c1ccc(C(=O)O)cc1)CCCCC2 | 9.57 µM
8 | C[n+]1c2ccccc2nc2ccc(NCCO)cc21 | 30.6 µM
9 | O=C(c1ccc(Cl)cc1)C1C2C(=O)N(c3ccccc3)C(=O)C2C2CCCN21 (stereo not given) | 19.8 µM
10 | CCOC(=O)c1c(/N=C/c2ccc(OC)cc2O)sc2c1CCN(C)C2 | > 38 µM (inactive)
11 | CC1CC(=O)c2c(cc3c(-c4c(O)cc(O)c5c(O)c6c(cc45)OC(C)CC6=O)c(O)cc(O)c3c2O)O1 (stereo not given) | 2.07 µM
12 | O=C1C(Cl)=C(NC(=O)c2ccccc2)C(=O)C(Cl)=C1NC(=O)c1ccccc1 | < 0.3 µM
13 | O=c1[nH][nH]c2cc(=O)n(-c3cccc(C(F)(F)F)c3)nc12 | 20.3 µM
14 | N#CC1(C#N)C(c2ccccc2)OC23CCCCC2C1(C#N)C(=N)O3 (stereo not given) | > 38 µM (inactive)
15 | C/C(=N/Nc1ccc(C(=O)O)cc1)c1ccc(O)c(O)c1O | 11.1 µM
16 | Cc1nn(C)cc1C(=O)NNC(=S)Nc1ccccc1 | 19.5 µM
17 | CCCCCCc1cc2cc(C(=O)NC)c(=N)oc2cc1O | 6.09 µM
18 | CCc1cc(-c2n[nH]c(CCC(=O)O)c2-c2nc3ccccc3n2C)c(O)cc1O | 12.1 µM
19 | CC(C)C1Nc2ccc(C(=O)O)cc2C2C=CCC21 (stereo not given) | > 38 µM (inactive)
20 | CC1=C(C#N)c2nc(N)c(C#N)c(C)c2/C1=C\c1ccc(-c2ccccc2C(=O)O)o1 | 17.9 µM
21 | CC(=O)OC1=C(O)C(=O)c2ccccc2C1=O | 10.3 µM
22 | CCOC(=O)c1ccc(-c2ccc(/C=C(\C#N)C(=O)NCC3CCCO3)o2)cc1 (stereo not given) | > 38 µM (inactive)
23 | O=C1CCNc2ccc(-c3ccccc3)cc21 | 4.42 µM
24 | CCCCCC#CCC#CCC#CCC#CCCCC(=O)O | 6.71 µM
25 | NS(=O)(=O)c1ccc(-c2ccc(C=C3C(=O)NC(=S)NC3=O)o2)cc1 | 8.11 µM
26 | Cc1ccc(C2C(C(=O)c3cccs3)=C(O)C(=O)N2c2nnc(C)s2)cc1 (stereo not given) | 2.43 µM
27 | CCc1ccc(N2C(=O)NC(=O)/C(=C\c3cccn3CCOc3ccc(C(C)C)cc3)C2=O)cc1 | > 38 µM (inactive)

Row | Structure (SMILES) | AC50
28 | O=c1[nH]c(-[n+]2ccccc2)c(/C=N/NC([S-])=Nc2ccccc2)s1 | 15.1 µM
29 | O=C(Cc1cccs1)Nc1nnc(SCc2ccc(Br)cc2)s1 | > 38 µM (inactive)
30 | CC1(OC(=O)c2ccc(Cl)nc2)C(=O)C=C2C=C(c3ccc(C#N)cc3)OC=C2C1=O (stereo not given) | 20 µM
31 | CC1(C)CC2(CC(c3ccccc3F)c3ccc(O)c(O)c3O2)NC(=S)N1 (stereo not given) | 0.638 µM
32 | CC(C(=O)Nc1ccc(C(=O)O)c(O)c1)N1C(=O)/C(=C\c2ccco2)SC1=S (stereo not given) | 19 µM
33 | Cc1ccc(-c2cc(C(=O)O)c3cc(Br)ccc3n2)o1 | > 38 µM (inactive)
34 | Cc1cccc(CS(=O)(=O)c2nnc([C@H](Cc3ccccc3)NC(=O)OC(C)(C)C)o2)c1 | > 38 µM (inactive)
35 | CCN1CCc2c(sc(N)c2C(N)=O)C1 | 37.4 µM
36 | Cc1nc2ccccc2n1/N=C/c1ccc([N+](=O)[O-])s1 | > 38 µM (inactive)
37 | O=[N+]([O-])c1ccc(O)c(C=Nc2ccc3c(c2)OCCO3)c1 | > 38 µM (inactive)
38 | O=C1OC(/C(=C\Nc2cc(Cl)ccc2O)[N+](=O)[O-])c2ccccc21 (stereo not given) | 12.4 µM
39 | Cc1cccc2cc3c(N)c(C(=O)N4CCCc5ccccc54)sc3nc12 | 19.9 µM
40 | CN(C)c1ccc(N=Cc2nc(-c3ccccc3)oc2OC(=O)c2cccc(Br)c2)cc1 | > 38 µM (inactive)
41 | COc1cc(C(=O)NC(=S)NNC(=O)c2cnccn2)cc(OC)c1OC | < 0.3 µM
42 | COc1ccc2ccccc2c1CNCc1ccccn1 | > 38 µM (inactive)
43 | O=C1CSC(=S)N1/N=C/c1cc(Br)c(O)c(Br)c1 | > 38 µM (inactive)
44 | CCOc1cc(/C=C2\C(=O)N(c3cccc(C(=O)O)c3)N=C2C(F)(F)F)ccc1OCC(=O)Nc1ccccc1OC | 8.68 µM
45 | CC1CCN(Cc2c(O)ccc3c2O/C(=C\c2ccco2)C3=O)CC1 | 6.87 µM
46 | N#CC1=C(N)N2C(=C(C#N)C1c1ccccc1)Sc1ccccc12 (stereo not given) | 5.23 µM
47 | COc1ccc(CN2C(=O)NC(=O)/C(=C\c3ccco3)C2=O)cc1 | 38.7 µM
48 | COC(=O)COc1ccc(C2Nc3c(Cl)ccc(C(=O)O)c3C3C=CCC32)cc1 (stereo not given) | > 38 µM (inactive)
49 | CN1CC=C2C(C#N)=C(N)C(C#N)(C#N)[C@H](c3ccoc3)[C@H]2C1 | 32.4 µM
50 | O=C(CSc1ncn[nH]1)Nc1c(Br)cc([N+](=O)[O-])cc1Br | 14 µM
51 | COc1cc(N2CCCC2)c(OC)cc1/C=C(/C#N)c1cccc(Br)c1 | 10.3 µM
52 | COc1ccc(N=C2S/C(=C\c3cc(C)n(C)c3C)C(=O)N2C)cc1 | > 38 µM (inactive)
53 | COc1ccc(/C=C2\C(=O)NC(=S)N2C(=O)c2ccc(C)cc2)cc1 | > 38 µM (inactive)
54 | O=C(N/N=C/c1sc(=O)[nH]c1-[n+]1ccccc1)c1ccccc1[O-] | 30.2 µM

Row | Structure (SMILES) | AC50
55 | OC(CNC1CCCC1)COc1ccccc1Br (stereo not given) | > 38 µM (inactive)
56 | CCc1ccc(N2C(=O)NC(=O)/C(=C/c3cccn3CCOc3ccc(C(C)CC)cc3)C2=O)cc1 (stereo not given) | > 38 µM (inactive)
57 | CCOC(=O)/C(C#N)=C/c1ccc(-c2ccsc2C(=O)OC)o1 | > 38 µM (inactive)
58 | O=C(O)/C=C/C(=O)NNc1ncnc2ccccc12 | 22.2 µM
59 | CCOC(=O)c1ccc(N=Nc2c(C)c(C#N)c(O)[nH]c2=O)cc1 | 13.3 µM
60 | COc1ccc(N(C(=O)CCl)C(C)(C(=O)Nc2c(C)cccc2C)c2ccccn2)cc1 (stereo not given) | > 38 µM (inactive)
61 | O=C1/C(=C\c2ccc(Br)cc2)SC(=S)N1NS(=O)(=O)c1ccccc1 | 17.7 µM
62 | CC/C(=N/Nc1cccc(C)c1)c1cnnc(SC)n1 | > 38 µM (inactive)
63 | COC(=O)/C=C1/S/C(=N/NC(=O)c2ccc(Cl)cc2Cl)NC1=O | 22.4 µM
64 | COc1ccc(NC(=S)NNc2ccc(S(=O)(=O)Nc3ccccc3C(=O)O)cc2[N+](=O)[O-])cc1 | 6.28 µM
65 | COc1ccccc1OCC(=O)NNC(=O)c1cnccn1 | 35.3 µM
66 | Cc1[nH][nH]c(=O)c1C(c1ccc(O)c([N+](=O)[O-])c1)c1c(C)[nH][nH]c1=O | 8.52 µM
67 | Cc1cc(C)cc(NC(=O)N(C)Cc2ccccc2)c1 | > 38 µM (inactive)
68 | CN(C)[C@@H]1C(=O)C(C(N)=O)=C(O)[C@@]2(O)C(=O)C3=C(O)c4c(O)cccc4[C@@](C)(O)[C@H]3[C@H](O)[C@@H]12 | 12 µM
69 | O=C(NC(=S)NNS(=O)(=O)c1ccccc1)c1ccc([N+](=O)[O-])cc1 | 34.2 µM
70 | CC1=C(C#N)C(=O)N(C2CCS(=O)(=O)C2)C(=O)/C1=C\c1ccco1 (stereo not given) | 3.22 µM
71 | Oc1ccc(N=Nc2nccs2)c(O)c1 | 38.3 µM
72 | COc1ccc(/C=C2\SC(=O)NC2=S)cc1OC | 20 µM
73 | COc1ccccc1-n1c(C)nc2cc(C(=O)NCc3ccc4c(c3)OCO4)ccc21 | > 38 µM (inactive)
74 | CC(C)(C)OC(=O)NCCCC1=CC2=CC(=O)C(C)(O)C(=O)C2=CO1 (stereo not given) | 19.3 µM
75 | Oc1ccc(Br)cc1C=Nc1cccn2cc(-c3ccccc3)nc12 | > 38 µM (inactive)
76 | Cc1cc(/C=C2\C(=O)NC(=O)N(Cc3ccccc3)C2=O)c(C)n1-c1ccc(Cl)c(C(=O)O)c1 | 33.2 µM
77 | COc1cccc(/C(O)=C/c2nc3ccc(C(=O)NCCc4ccc(Cl)cc4)cc3[nH]c2=O)c1 | 23.3 µM
78 | O=C(/C=C/c1ccc(O)c(O)c1)OC1C(O)CC(OC(=O)/C=C/c2ccc(O)c(O)c2)(C(=O)O)CC1O (stereo not given) | 15.9 µM
79 | Cc1cccc(-n2c(O)c(/C=N/Nc3nc4c(c(=O)n(C)c(=O)n4C)n3C)c(=O)[nH]c2=S)c1 | 7.45 µM
80 | N#CC(C#N)=NNc1ccc(S(N)(=O)=O)cc1 | 7.56 µM
81 | S=c1[nH]cnc2sc(Nc3ccccc3)nc12 | 27.4 µM

Row | Structure (SMILES) | AC50
82 | CC1(OC(=O)C2CCCC2)C(=O)C=C2C=C(c3ccc(C#N)cc3)OC=C2C1=O (stereo not given) | 9.38 µM
83 | CCOC(=O)c1c(/N=C/C2C(=O)NC(=S)NC2=O)sc2c1CCC2 | 12.8 µM
84 | N#C/C(=C\c1cn(-c2ccccc2)nc1-c1cc2ccccc2o1)c1nc2ccccc2[nH]1 | > 38 µM (inactive)
85 | Oc1sc(C=Nc2ccc(F)cc2)c2ccccc12 | 22.2 µM
86 | CCOc1ccc(-c2c(C#N)c(N)nc3sc(C(=O)c4ccccc4)c(N)c23)cc1 | 35.5 µM
87 | O=C(Nc1ccc2nc(-c3ccco3)c(-c3ccco3)nc2c1)N1CCN(c2ccccn2)CC1 | > 38 µM (inactive)
88 | O=C(O)c1ccc(Cl)c2c1C1C=CCC1C(c1ccccn1)N2 (stereo not given) | 29 µM
89 | COc1cc([N+](=O)[O-])ccc1N/C=C/C(=O)c1cccs1 | > 38 µM (inactive)
90 | CC(=O)Nc1ccc(N2C(=O)c3cccc4c(O)ccc(c34)C2=O)cc1 | 3.81 µM
91 | COc1cccc(CN2C(=O)c3cccc(N)c3C2=O)c1 | 32 µM
92 | COc1ccc(C(=O)c2c(N)sc3c2CCN(C)C3)cc1 | > 38 µM (inactive)
93 | O=C(CN1C(=O)/C(=C/c2cccc(Br)c2)SC1=S)NC1=NCCS1 | > 38 µM (inactive)
94 | NC1=NC(=O)/C(=C\C=C\c2ccccc2)S1 | > 38 µM (inactive)
95 | CCCCn1c(O)c(N=Nc2ccccn2)c2ccccc21 | 24.2 µM
96 | CN1C(=O)/C(=C/c2ccco2)SC1=Nc1cccc(C(=O)O)c1 | > 38 µM (inactive)
97 | Cc1ccc(O)c(N=CC2=C(O)c3ccccc3C2=O)c1 | 24.8 µM
98 | CN1C(=O)/C(=C/c2cn(CC(=O)N3CCCCC3)c3ccccc23)c2ccccc21 | > 38 µM (inactive)
99 | COc1ccc(Cn2c3ccc(OC)cc3c3nc4ccccc4nc32)cc1 | 22.9 µM
100 | CC(C)(C)C1CC=C2C(C#N)=C(N)C(C#N)(C#N)C(c3cccs3)C2C1 (stereo not given) | > 38 µM (inactive)
101 | CC(C)(O)C(=O)NNC(=S)NCc1ccco1 | 4.16 µM
102 | Cc1ccc(N=Nc2c(O)n(CN3CCOCC3)c3ccccc23)cc1 | 11.4 µM
103 | CC1=NN2C(=N)/C(=C\c3ccc(SCc4ccccc4)o3)C(=O)N=C2S1 | 38 µM
104 | Cc1cc(C)cc(N2C(=O)NC(=O)/C(=C/c3cccn3-c3ccc(Cl)cc3)C2=O)c1 | > 38 µM (inactive)
105 | Nc1nnnn1/N=C/c1cc(Cl)ccc1O | 37.5 µM
